The values that follow are results of earlier work, collected in patent publication US20230023032A1, “SUSTAINED RELEASE COMPOSITIONS COMPRISING LIOTHYRONINE” (Amneal Complex Products Research LLC, priority 2020, published 2023).

The structures appear in SMILES notation.

The conditions of the data set: administered in an immediate release form.

With `N[C@@H](Cc1cc(I)c(Oc2ccc(O)c(I)c2)c(I)c1)C(=O)O` [liothyronine], the half-life entry is recorded as “about 10 hours”.
